One test relates to Z-138 cells. The test can be described thus: Z-138 cell growth inhibition test (CellTiter-Glo, 5 days). In kind it is cell-based. As to conditions: Homo sapiens, incubated 5 days (120 h). The procedure: The cells were routinely subcultured. After approximately two passages, well-growing cell strains were selected for plating.
• I. The suspension was removed from the incubator, transferred into a 50 mL centrifuge tube, and then centrifuged at 800-1000 rpm for 3-5 min, and the supernatant was discarded. An appropriate volume of culture medium was added to the centrifuge tube, and the cells were gently pipetted to ensure a uniform suspension. Cell counting was performed using the Vi-Cell XR cell counter. • II. Based on the measured cell density, the cell suspension was adjusted to an appropriate concentration. • III. The cell suspension was added to a 384-well plate at a volume of 40 µL/well, with 700 cells/well. For blank control wells, an equal volume of cell-free culture medium was added instead.
• I. The compound was dissolved in 100% DMSO to prepare a 10 mM stock solution. • II. […]
The assay was performed according to the instructions of the Promega CellTiter-Glo luminescent cell viability assay kit (Promega-G7573): • I. The CellTiter-Glo buffer was thawed and let stand at room temperature. • II. […] The luminescence signals were detected on 2104 EnVision plate reader. […]
The dose-response inhibition curve was plotted using XLFit, and IC50 values were calculated using the four-parameter logistic model: [fit = (A + ((B - A)/(1 + ((C/x) ^ D))))].
(In ATP-based viability assays light output follows the ATP content of the culture.)

In the next test the target is T1, PRMT5 (Homo sapiens, UniProt O14744).
T1 construct: purchased Active Motif 31921
T1 sequence (O14744 whole entry): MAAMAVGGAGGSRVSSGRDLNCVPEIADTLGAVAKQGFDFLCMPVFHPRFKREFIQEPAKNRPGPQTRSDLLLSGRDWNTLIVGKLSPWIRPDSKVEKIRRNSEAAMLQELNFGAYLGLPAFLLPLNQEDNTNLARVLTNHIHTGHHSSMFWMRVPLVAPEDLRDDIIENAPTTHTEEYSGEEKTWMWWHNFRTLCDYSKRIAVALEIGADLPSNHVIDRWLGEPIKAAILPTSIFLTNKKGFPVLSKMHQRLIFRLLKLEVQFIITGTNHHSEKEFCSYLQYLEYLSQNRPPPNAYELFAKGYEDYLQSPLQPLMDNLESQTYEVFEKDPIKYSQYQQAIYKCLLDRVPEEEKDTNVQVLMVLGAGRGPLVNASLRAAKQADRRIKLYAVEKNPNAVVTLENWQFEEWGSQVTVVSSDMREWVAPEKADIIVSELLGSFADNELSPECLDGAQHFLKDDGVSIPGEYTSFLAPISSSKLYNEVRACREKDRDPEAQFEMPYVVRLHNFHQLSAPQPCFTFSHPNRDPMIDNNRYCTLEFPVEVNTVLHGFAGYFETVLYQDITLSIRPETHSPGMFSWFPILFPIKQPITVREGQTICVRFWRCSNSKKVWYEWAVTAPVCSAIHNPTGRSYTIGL
T1 sequence (Q9BQA1 whole entry partner): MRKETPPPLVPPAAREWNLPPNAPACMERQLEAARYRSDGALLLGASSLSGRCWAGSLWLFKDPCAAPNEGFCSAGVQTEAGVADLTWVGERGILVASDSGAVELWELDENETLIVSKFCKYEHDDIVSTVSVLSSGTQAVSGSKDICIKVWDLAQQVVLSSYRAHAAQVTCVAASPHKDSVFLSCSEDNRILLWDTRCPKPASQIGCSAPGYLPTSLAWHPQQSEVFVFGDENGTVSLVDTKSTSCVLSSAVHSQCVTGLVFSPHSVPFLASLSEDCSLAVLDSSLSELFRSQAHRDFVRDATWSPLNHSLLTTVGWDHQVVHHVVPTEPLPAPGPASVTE
Put plainly: PRMT5 enzymatic activity inhibition test ([3H]-SAM FlashPlate). It counts as biochemical. As to conditions: for IC50: 5 nM PRMT5, 0.3 µM [3H]-SAM, 100 nM polypeptide substrate. The procedure:
A 1× enzyme reaction buffer was prepared using 10 mM Tris 8.0 (Sigma, Cat. No. T2694-1L), 0.01% Tween-20 (Sigma, Cat. No. P2287-100ML), and 1 mM DTT (Sigma, Cat. No. D0632-10G). […] Subsequently, the concentration (X) and corresponding inhibition rate (Inh%) (Y) were input into EXCEL. The XLFit plug-in was then used to fit the data using the built-in four-parameter logistic equation: Y = Bottom + (Top - Bottom)/(1 + (IC50/X) […]). The IC50 (half-maximal inhibitory concentration) value for each compound was then calculated.

The test system of test [1] is human origin B-cell non-Hodgkin's lymphoma Z-138 cell strain. Put plainly: Subcutaneous Z-138 xenograft in mice. In kind it is in vivo. To be noted: subcutaneous xenograft in female NOD/SCID mice.

A word on the IC50: it is the concentration that gives 50% inhibition. Higher therefore signals lower potency.

Turning to `CC(C)Oc1nc(NC2CCN(C(=O)c3ccccc3)CC2)cc(C(=O)N2CC[C@@H](N3CCc4ccccc4C3)[C@H](O)C2)n1` [Example 1, (6-((1-benzoylpiperidin-4-yl)amino)-2-isopropoxypyrimidin-4-yl)((3R,4R)-4-(3,4-dihydroisoquinolin-2(1H)-yl)-3-hydroxypiperidin-1-yl)methanone], the figures for the IC50 with Z-138 cells and against PRMT5 were 46.6 nM and 6.4 nM, respectively. The “inhibitory activity against the enzymatic activity” value on PRMT5 (in vitro, statement in words) is given as “strong inhibitory effects”. Further, the tumor inhibition effects entry in test [1] is on record as “excellent tumor inhibition effects”.

Turning to `CC(=O)N1CCC(Nc2cc(C(=O)N3CCC(N4CCc5ccccc5C4)CC3)nc(C)n2)CC1` [reference compound, reference compound], the IC50 with Z-138 cells is 2710 nM; against PRMT5 it was 115 nM.

The record behind these values is patent EP4631939A1, “SALT AND CRYSTAL FORM OF ANTI-TUMOR HETEROCYCLIC COMPOUND” (CSPC Zhongqi Pharmaceutical Technology (Shijiazhuang) Co., …, priority 2022, dated 2024).
